System: Respiratory syncytial virus (RSV) strain A2
Test: Hep-2 RSV2 384-well assay (EC50-HEP2-384)
Assay type: cell-based
Settings: HEp-2 cells, RSV A2, MOI=4, 4 days, Table 3
[1] = human respiratory syncytial virus, HEp-2, 96 h

| Structure (SMILES) | EC50 [1] | EC50 |
| --- | --- | --- |
| CC(C)C(=O)O[C@H]1[C@@H](OC(=O)C(C)C)[C@](C#N)(c2ccc3c(N)ncnn23)O[C@@H]1COP(=O)(N[C@@H](C)C(=O)OCC1CCCCC1)Oc1ccc(C(C)(C)C)cc1 (stereo partly drawn) [Example 164, (2R,3R,4R,5R)-2-(4-aminopyrrolo[2,1-f][1,2,4]triazin-7-yl)-5-((((4-(tert-butyl)phenoxy)(((S)-1-(cyclohexylmethoxy)-1-oxopropan-2-yl)amino)phosphoryl)oxy)methyl)-2-cyanotetrahydrofuran-3,4-diyl bis(2-methylpropanoate)] | 107 nM |  |
| CC(=O)O[C@H]1[C@@H](OC(C)=O)[C@](C#N)(c2ccc3c(N)ncnn23)O[C@@H]1COP(=O)(N[C@@H](C)C(=O)O[C@H]1CCOC1)Oc1ccc(C(C)(C)C)cc1 (stereo partly drawn) [Example 35, (2R,3R,4R,5R)-2-(4-aminopyrrolo[2,1-f][1,2,4]triazin-7-yl)-5-((((4-(tert-butyl)phenoxy)(((S)-1-oxo-1-(((S)-tetrahydrofuran-3-yl)oxy)propan-2-yl)amino)phosphoryl)oxy)methyl)-2-cyanotetrahydrofuran-3,4-diyl Diacetate] | 185 nM |  |
| C[C@H](NP(=O)(OC[C@H]1O[C@@](C#N)(c2ccc3c(N)ncnn23)[C@H](O)[C@@H]1O)Oc1ccc(C(C)(C)C)cc1)C(=O)OCc1ccccc1 (stereo partly drawn) [Example 57, Benzyl ((((2R,3S,4R,5R)-5-(4-aminopyrrolo[2,1-f][1,2,4]triazin-7-yl)-5-cyano-3,4-dihydroxytetrahydrofuran-2-yl)methoxy)(4-(tert-butyl)phenoxy)phosphoryl)-L-alaninate] | 186 nM |  |
| COC(C)COC(=O)[C@H](C)NP(=O)(OC[C@H]1O[C@@](C#N)(c2ccc3c(N)ncnn23)[C@H](O)[C@@H]1O)Oc1ccc(C(C)(C)C)cc1 (stereo partly drawn) [Example 155, 2-methoxypropyl ((((2R,3S,4R,5R)-5-(4-aminopyrrolo[2,1-f][1,2,4]triazin-7-yl)-5-cyano-3,4-dihydroxytetrahydrofuran-2-yl)methoxy)(4-(tert-butyl)phenoxy)phosphoryl)-L-alaninate] | 683 nM |  |
| C[C@H](NP(=O)(OC[C@H]1O[C@@](C#N)(c2ccc3c(N)ncnn23)[C@H](O)[C@@H]1O)Oc1ccc(C(C)(C)C)cc1)C(=O)OC1CC2(CCCC2)C1 (stereo partly drawn) [Example 97a, Spiro[3.4]octan-2-yl ((((2R,3S,4R,5R)-5-(4-aminopyrrolo[2,1-f][1,2,4]triazin-7-yl)-5-cyano-3,4-dihydroxytetrahydrofuran-2-yl)methoxy)(4-(tert-butyl)phenoxy)phosphoryl)-L-alaninate] | 103 nM |  |
| CCC(CC)COC(=O)[C@H](C)NP(=O)(OC[C@H]1O[C@@](C#N)(c2ccc3c(N)ncnn23)[C@H](O)[C@@H]1O)Oc1ccc(C#N)cc1 (stereo partly drawn) [Example 39, 2-ethylbutyl ((((2R,3S,4R,5R)-5-(4-aminopyrrolo[2,1-f][1,2,4]triazin-7-yl)-5-cyano-3,4-dihydroxytetrahydrofuran-2-yl)methoxy)(4-cyanophenoxy)phosphoryl)-L-alaninate] | 1600 nM |  |
| CCC(=O)O[C@H]1[C@@H](OC(=O)CC)[C@](C#N)(c2ccc3c(N)ncnn23)O[C@@H]1COP(=O)(N[C@@H](C)C(=O)OC1CC2(CCCC2)C1)Oc1ccc(C(C)(C)C)cc1 (stereo partly drawn) [Example 99b, (2R,3R,4R,5R)-2-(4-aminopyrrolo[2,1-f][1,2,4]triazin-7-yl)-5-((((4-(tert-butyl)phenoxy)(((S)-1-oxo-1-(spiro[3.4]octan-2-yloxy)propan-2-yl)amino)phosphoryl)oxy)methyl)-2-cyanotetrahydrofuran-3,4-diyl Dipropionate] |  | 66.9 nM |
| CCC(CC)COC(=O)[C@H](C)NP(=O)(OC[C@H]1O[C@@](C#N)(c2ccc3c(N)ncnn23)[C@H](OC(=O)C(C)C)[C@@H]1OC(=O)C(C)C)Oc1ccc(C#N)cc1 (stereo partly drawn) [Example 40, (2R,3R,4R,5R)-2-(4-aminopyrrolo[2,1-f][1,2,4]triazin-7-yl)-2-cyano-5-((((4-cyanophenoxy)(((S)-1-(2-ethylbutoxy)-1-oxopropan-2-yl)amino)phosphoryl)oxy)methyl)tetrahydrofuran-3,4-diyl bis(2-methylpropanoate)] | 226 nM |  |
| CCC(CC)COC(=O)[C@H](C)N[P@@](=O)(OC[C@H]1O[C@@](C#N)(c2ccc3c(N)ncnn23)[C@H](OC(=O)C(C)C)[C@@H]1OC(=O)C(C)C)Oc1cccc2c1CCCC2 [Example 146, (2R,3R,4R,5R)-2-(4-aminopyrrolo[2,1-f][1,2,4]triazin-7-yl)-2-cyano-5-((((R)—(((S)-1-(2-ethylbutoxy)-1-oxopropan-2-yl)amino)((5,6,7,8-tetrahydronaphthalen-1-yl)oxy)phosphoryl)oxy)methyl)tetrahydrofuran-3,4-diyl bis(2-methylpropanoate)] |  | 459 nM |
| C[C@H](NP(=O)(OC[C@H]1O[C@@](C#N)(c2ccc3c(N)ncnn23)[C@H](O)[C@@H]1O)Oc1ccc(C(C)(C)C)cc1)C(=O)OC1CCC1 (single isomer, unassigned) [Example 31b] |  | 41.1 nM |
| COC(C)COC(=O)[C@H](C)NP(=O)(OC[C@H]1O[C@@](C#N)(c2ccc3c(N)ncnn23)[C@H](OC(=O)C(C)C)[C@@H]1OC(=O)C(C)C)Oc1ccc(C(C)(C)C)cc1 (stereo partly drawn) [Example 162, (2R,3R,4R,5R)-2-(4-aminopyrrolo[2,1-f][1,2,4]triazin-7-yl)-5-((((4-(tert-butyl)phenoxy)(((2S)-1-(2-methoxypropoxy)-1-oxopropan-2-yl)amino)phosphoryl)oxy)methyl)-2-cyanotetrahydrofuran-3,4-diyl bis(2-methylpropanoate)] | 72.5 nM |  |
| CCC(CC)COC(=O)[C@H](C)NP(=O)(OC[C@H]1O[C@@](C#N)(c2ccc3c(N)ncnn23)[C@H](O)[C@@H]1O)Oc1cccc2c1CCCC2 (single isomer, unassigned) [Example 135] |  | 1260 nM |
| CCCOC(=O)[C@H](C)NP(=O)(OC[C@H]1O[C@@](C#N)(c2ccc3c(N)ncnn23)[C@H](OC(=O)C(C)C)[C@@H]1OC(=O)C(C)C)Oc1ccc(C(C)(C)C)cc1 (single isomer, unassigned) [Example 48b] |  | 55.4 nM |
| CCOC(=O)[C@H](C)NP(=O)(OC[C@H]1O[C@@](C#N)(c2ccc3c(N)ncnn23)[C@H](OC(=O)CC(C)C)[C@@H]1OC(=O)CC(C)C)Oc1ccc(C(C)(C)C)cc1 (stereo partly drawn) [Example 158, (2R,3R,4R,5R)-2-(4-aminopyrrolo[2,1-f][1,2,4]triazin-7-yl)-5-((((4-(tert-butyl)phenoxy)(((S)-1-ethoxy-1-oxopropan-2-yl)amino)phosphoryl)oxy)methyl)-2-cyanotetrahydrofuran-3,4-diyl bis(3-methylbutanoate)] | 272 nM |  |
| CCC(CC)COC(=O)[C@H](C)N[P@@](=O)(OC[C@H]1O[C@@](C#N)(c2ccc3c(N)ncnn23)[C@H](OC(C)=O)[C@@H]1OC(C)=O)Oc1cccc2c1CCCC2 [Example 147, (2R,3R,4R,5R)-2-(4-aminopyrrolo[2,1-f][1,2,4]triazin-7-yl)-2-cyano-5-((((R)—(((S)-1-(2-ethylbutoxy)-1-oxopropan-2-yl)amino)((5,6,7,8-tetrahydronaphthalen-1-yl)oxy)phosphoryl)oxy)methyl)tetrahydrofuran-3,4-diyl Diacetate] |  | 334 nM |
| COC(C)(C)COC(=O)[C@H](C)NP(=O)(OC[C@H]1O[C@@](C#N)(c2ccc3c(N)ncnn23)[C@H](OC(C)=O)[C@@H]1OC(C)=O)Oc1ccc(C(C)(C)C)cc1 (stereo partly drawn) [Example 131, (2R,3R,4R,5R)-2-(4-aminopyrrolo[2,1-f][1,2,4]triazin-7-yl)-5-((((4-(tert-butyl)phenoxy)(((S)-1-(2-methoxy-2-methylpropoxy)-1-oxopropan-2-yl)amino)phosphoryl)oxy)methyl)-2-cyanotetrahydrofuran-3,4-diyl Diacetate] | 56.2 nM |  |
| CC(C)C(=O)O[C@H]1[C@@H](OC(=O)C(C)C)[C@](C#N)(c2ccc3c(N)ncnn23)O[C@@H]1COP(=O)(N[C@@H](C)C(=O)OCc1ccccc1)Oc1ccc(C(C)(C)C)cc1 (stereo partly drawn) [Example 58, (2R,3R,4R,5R)-2-(4-aminopyrrolo[2,1-f][1,2,4]triazin-7-yl)-5-((((((S)-1-(benzyloxy)-1-oxopropan-2-yl)amino)(4-(tert-butyl)phenoxy)phosphoryl)oxy)methyl)-2-cyanotetrahydrofuran-3,4-diyl bis(2-methylpropanoate)] | 71.5 nM |  |
| CCC(C)(C)CCOC(=O)[C@H](C)NP(=O)(OC[C@H]1O[C@@](C#N)(c2ccc3c(N)ncnn23)[C@H](OC(=O)C(C)C)[C@@H]1OC(=O)C(C)C)Oc1ccc(C(C)(C)C)cc1 (stereo partly drawn) [Example 160, (2R,3R,4R,5R)-2-(4-aminopyrrolo[2,1-f][1,2,4]triazin-7-yl)-5-((((4-(tert-butyl)phenoxy)(((S)-1-((3,3-dimethylpentyl)oxy)-1-oxopropan-2-yl)amino)phosphoryl)oxy)methyl)-2-cyanotetrahydrofuran-3,4-diyl bis(2-methylpropanoate)] | 219 nM |  |
| C[C@H](NP(=O)(OC[C@H]1O[C@@](C#N)(c2ccc3c(N)ncnn23)[C@H](O)[C@@H]1O)Oc1ccc(C(C)(C)C)cc1)C(=O)OC1CC2(CCCC2)C1 (stereo partly drawn) [Example 97b, Spiro[3.4]octan-2-yl ((((2R,3S,4R,5R)-5-(4-aminopyrrolo[2,1-f][1,2,4]triazin-7-yl)-5-cyano-3,4-dihydroxytetrahydrofuran-2-yl)methoxy)(4-(tert-butyl)phenoxy)phosphoryl)-L-alaninate] |  | 106 nM |
| CC(C)C(=O)O[C@H]1[C@@H](OC(=O)C(C)C)[C@](C#N)(c2ccc3c(N)ncnn23)O[C@@H]1COP(=O)(N[C@@H](C)C(=O)O[C@H]1CCOC1)Oc1ccc(C(C)(C)C)cc1 (stereo partly drawn) [Example 36, (2R,3R,4R,5R)-2-(4-aminopyrrolo[2,1-f][1,2,4]triazin-7-yl)-5-((((4-(tert-butyl)phenoxy)(((S)-1-oxo-1-(((S)-tetrahydrofuran-3-yl)oxy)propan-2-yl)amino)phosphoryl)oxy)methyl)-2-cyanotetrahydrofuran-3,4-diyl bis(2-methylpropanoate)] | 102 nM |  |
| CCC(CC)COC(=O)[C@H](C)NP(=O)(OC[C@H]1O[C@@](C#N)(c2ccc3c(N)ncnn23)[C@H](O)[C@@H]1O)Oc1cccc2c1CCCC2 (single isomer, unassigned) [Example 136] |  | 377 nM |

Reference: patent US12404289B2 (Gilead Sciences, Inc., priority 2020, dated 2025)
